Assay [1] concerns the target T1, human adenosine A1 receptor (Homo sapiens, UniProt P30542).
T1 construct: expressed in transfected cells; host or cells: Chinese hamster ovary (CHO) cells with CRE/SPAP/HYG reporter elements
T1 sequence (P30542 1-326): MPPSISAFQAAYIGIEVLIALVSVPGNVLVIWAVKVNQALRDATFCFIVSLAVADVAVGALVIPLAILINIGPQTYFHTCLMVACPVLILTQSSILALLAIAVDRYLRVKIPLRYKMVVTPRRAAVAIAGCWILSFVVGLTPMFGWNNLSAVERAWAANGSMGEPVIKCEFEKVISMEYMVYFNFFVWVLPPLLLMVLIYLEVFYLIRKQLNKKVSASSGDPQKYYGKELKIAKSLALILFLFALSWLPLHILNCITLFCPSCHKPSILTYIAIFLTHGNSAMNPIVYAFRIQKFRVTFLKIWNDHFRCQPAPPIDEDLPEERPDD
Nature of the assay: Reporter gene assay (CRE/SPAP) in CHO cells, agonist potency relative to NECA, adenosine A1 receptor. Format: cell-based. More on the design: key: equipotent concentration ratio, NECA = 1. Conditions: ECR = equipotent concentration ratio relative to NECA = 1, inhibition of forskolin-stimulated SPAP production. The protocol:
(§1) Reporter Gene Experiments
(§2) Agonist activity was measured in Chinese hamster ovary (CHO) cells containing the CRE/SPAP/HYG (CRE=cyclic AMP response element; HYG=hygromycin resistance; SPAP=secreted placental alkaline phosphatase) reporter gene elements, which upon stimulation of cAMP levels produced SPAP. A cell line was used, which was stably transfected with either the human adenosine A1 receptor or the human adenosine A3 receptor in addition to the above elements. Cells were plated out in 96-well plates in culture medium and incubated at 37° C. for 1 hour. For measurement of potency, agonists were added to the appropriate wells at a concentration range of approximately 10^−10- 10^−5M. 15Min later, cAMP levels were stimulated by addition of a maximal concentration of forskolin. All cells were then incubated for a further 5 hours at 37° C., and cooled to room temperature, after which a substrate for the phosphatase (para-nitrophenol phosphate, pNPP), which is converted by SPAP to a coloured reagent) was then added and the 96-well -plates were read in a plate reader. From these readings, the concentration-dependence of the inhibition by the agonist for forskolin-stimulated SPAP production can be calculated. One of the agonists tested on each 96-well plate was the standard non-selective agonist, N-ethylcarboxamidoadenosine (NECA), and the potency of all test agonists is expressed relative to that of the NECA standard.
(§3) (ECR=equipotent concentration ratio relative to NECA=1)

Assay [2] concerns the target T2, human adenosine A3 receptor (Homo sapiens, UniProt P0DMS8).
T2 construct: expressed in transfected cells; host or cells: Chinese hamster ovary (CHO) cells with CRE/SPAP/HYG reporter elements
T2 sequence (P0DMS8 1-318): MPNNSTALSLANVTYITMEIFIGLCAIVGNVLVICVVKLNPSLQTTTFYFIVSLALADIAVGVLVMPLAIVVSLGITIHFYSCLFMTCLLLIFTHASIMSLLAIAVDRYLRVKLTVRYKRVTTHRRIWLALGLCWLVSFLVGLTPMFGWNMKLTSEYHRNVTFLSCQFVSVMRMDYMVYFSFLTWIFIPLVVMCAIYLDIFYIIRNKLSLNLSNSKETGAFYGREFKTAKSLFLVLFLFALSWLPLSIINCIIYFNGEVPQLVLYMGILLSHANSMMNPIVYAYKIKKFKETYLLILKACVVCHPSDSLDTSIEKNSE
Nature of the assay: Reporter gene assay (CRE/SPAP) in CHO cells, agonist potency relative to NECA, adenosine A3 receptor. The class given is cell-based. Details: key: equipotent concentration ratio, NECA = 1. Conditions: ECR = equipotent concentration ratio relative to NECA = 1, inhibition of forskolin-stimulated SPAP production. The protocol:
as §1, §2, §3

Structures are written as SMILES. Some results are limits rather than exact numbers.

Regarding `CC(C)c1nnc([C@H]2O[C@@H](n3cnc4c(NC5CCOCC5)ncnc43)[C@H](O)[C@@H]2O)[nH]1` [Example 141, (2R,3S,4R,5R)-2-(5-isopropyl-4H-1,2,4-triazol-3-yl)-5-[6-(tetrahydro-2H-pyran-4-ylamino)-9H-purin-9-yl]tetrahydrofuran-3,4-diol], the “Adenosine A1 receptor ECR*” value in assay [1] is given as 12.08. For the same molecule, in assay [2], the “Adenosine A3 receptor ECR*” value is listed as 228.

For `O[C@@H]1[C@H](O)[C@@H](c2nc(C3CC3)no2)O[C@H]1n1cnc2c(NC3CCOCC3)ncnc21` [Example 22, (2S,3S,4 R,5R)-2-(3-Cyclopropyl-[1,2,4]oxadiazol-5-yl)-5-[6-(tetrahydro-pyran4-ylamino)-purin-9-yl]-tetrahydro-furan-3,4-diol], in assay [1], the “Adenosine A1 receptor ECR*” value was 8.75. Further, in assay [2], the “Adenosine A3 receptor ECR*” value is 423.

For `CCc1nnc([C@H]2O[C@@H](n3cnc4c(NC(C)C)ncnc43)[C@H](O)[C@@H]2O)o1` [Example 131, (2S,3S,4R,5R)-2-(5-ethyl-1,3,4-oxadiazol-2-yl)-5-[6-(isopropylamino)-9H-purin-9-yl]tetrahydrofuran-3,4-diol], in assay [1], the “Adenosine A1 receptor ECR*” value came out at 0.15. In assay [2], the “Adenosine A3 receptor ECR*” value is reported as 199.01.

`CCc1cnc([C@H]2O[C@@H](n3cnc4c(NC5CCOCC5)ncnc43)[C@H](O)[C@@H]2O)o1` [Example 16, (2S,3S,4R,5R)-2-(5-Ethyl-oxazol-2-yl)-5-[6-(tetrahydro-pyran-4-ylamino)-purin-9-yl]-tetrahydro-furan-3,4-diol]: the “Adenosine A1 receptor ECR*” value in assay [1] was determined as 9.6. The “Adenosine A3 receptor ECR*” value in assay [2] came to 201.

Take `O[C@@H]1[C@H](O)[C@@H](c2nc(C3CC3)no2)O[C@H]1n1cnc2c(Nc3ccc(Cl)cc3F)ncnc21` [Example 62, (2R,3R,4S,5S)-2-[6-(4-chloro-2-fluoroanilino)-9H-purin-9-yl]-5-(3-cyclopropyl-1,2,4-oxadiazol-5-yl)tetrahydrofuran-3,4-diol]: the “Adenosine A1 receptor ECR*” value in assay [1] was 29.47. Besides, the “Adenosine A3 receptor ECR*” value in assay [2] was 327.

Turning to `CCOC(=O)N1CCC(Nc2ncnc3c2ncn3[C@@H]2O[C@H](c3nnc(C4CC4)o3)[C@@H](O)[C@H]2O)CC1` [Example 12, 4-{9-[5S-(5-Cyclopropyl-[1,3,4]oxadiazol-2-yl)-3R,4S-dihydroxy-tetrahydro-furan-2R-yl]-9H-purin-6-ylamino}-piperidine-1-carboxylic acid ethyl ester], in assay [1], the “Adenosine A1 receptor ECR*” value was 2.28. In addition, the “Adenosine A3 receptor ECR*” value in assay [2] is reported as 254.

For `CC(C)(C)c1noc([C@H]2O[C@@H](n3cnc4c(NCC5CC5)ncnc43)[C@H](O)[C@@H]2O)n1` [Example 44, (2S,3S,4 R,5R)-2-[3-(tert-butyl)-1,2,4-oxadiazol-5-yl]-5-{6-[(cyclopropylmethyl)amino]-9H-purin-9-yl}tetrahydrofuran-3,4-diol], the “Adenosine A1 receptor ECR*” value in assay [1] stood at 7.68. Besides, the “Adenosine A3 receptor ECR*” value in assay [2] was 165.54.

Regarding `CCc1cc([C@H]2O[C@@H](n3cnc4c(NC(CC)CC)nc(Cl)nc43)[C@H](O)[C@@H]2O)no1.O=CO` [Example 163, (2R,3R,4S,5R)-2-{2-chloro-6-[(1-ethylpropyl)amino]-9H-purin-9-yl}-5-(5-ethylisoxazol-3-yl)tetrahydrofuran-3,4-diol Formate], the “Adenosine A1 receptor ECR*” value in assay [1] amounted to 1.34. In addition, the “Adenosine A3 receptor ECR*” value in assay [2] amounted to 232.

In the case of `O[C@@H]1[C@H](O)[C@@H](c2nnc(C3CC3)o2)O[C@H]1n1cnc2c(NC3CCOCC3)ncnc21` [Example 108, (2S,3S,4R,5R)-2-(5-cyclopropyl-1,3,4-oxadiazol-2-yl)-5-[6-(tetrahydro-2H-pyran-4-ylamino)-9H-purin-9-yl]tetrahydrofuran-3,4-diol], in assay [1], the “Adenosine A1 receptor ECR*” value turned out to be 1.52. In addition, the “Adenosine A3 receptor ECR*” value in assay [2] is 254.

For the molecule `CCNS(=O)(=O)CCNc1ncnc2c1ncn2[C@@H]1O[C@H](c2nnc(C(C)(C)C)o2)[C@@H](O)[C@H]1O` [Example 123, 2-[(9-{(2R,3 R,4S,5S)-5-[5-(tert-butyl)-1,3,4-oxadiazol-2-yl]-3,4-dihydroxytetrahydrofuran-2-yl}-9H-purin-6-yl)amino]-N-ethylethanesulfonamide], in assay [1], the “Adenosine A1 receptor ECR*” value was 4.19. For the same molecule, the “Adenosine A3 receptor ECR*” value in assay [2] came to 325.44.

In the case of `Cc1cnc([C@H]2O[C@@H](n3cnc4c(Nc5ccc(F)cc5Cl)nc(Cl)nc43)[C@H](O)[C@@H]2O)o1` [Example 143, (2R,3R,4S,5S)-2-[2-chloro-6-(2-chloro-4-fluoroanilino)-9H-purin-9-yl]-5-(5-methyl-1,3-oxazol-2-yl)tetrahydrofuran-3,4-diol], in assay [1], the “Adenosine A1 receptor ECR*” value turned out to be 19.6. Further, in assay [2], the “Adenosine A3 receptor ECR*” value was over 74.1.

Consider `CC(C)c1noc([C@H]2O[C@@H](n3cnc4c(Nc5ccc(F)c(F)c5)ncnc43)[C@H](O)[C@@H]2O)n1` [Example 56, (2R,3R,4S,5S)-2-[6-(3,4-difluoroanilino)-9H-purin-9-yl]-5-(3-isopropyl-1,2,4-oxadiazol-5-yl)tetrahydrofuran-3,4-diol], for which, in assay [1], the “Adenosine A1 receptor ECR*” value worked out at 15.96. The “Adenosine A3 receptor ECR*” value in assay [2] is given as 717.99.

In the case of `CC(C)c1noc([C@H]2O[C@@H](n3cnc4c(NC5CC5)ncnc43)[C@H](O)[C@@H]2O)n1` [Example 51, (2R,3R,4S,5S)-2-[6-(cyclopropylamino)-9H-purin-9-yl]-5-(3-isopropyl-1,2,4-oxadiazol-5-yl)tetrahydrofuran-3,4-diol], the “Adenosine A1 receptor ECR*” value in assay [1] was 7.56. Moreover, the “Adenosine A3 receptor ECR*” value in assay [2] turned out to be 587.75.

Consider `CC(C)(C)c1cc([C@H]2O[C@@H](n3cnc4c(NC5CCS(=O)(=O)CC5)ncnc43)[C@H](O)[C@@H]2O)on1` [Example 119, (2S,3S,4 R,5R)-2-[3-(tert-butyl)isoxazol-5-yl]-5-{6-[(1,1-dioxidotetrahydro-2H-thiopyran-4-yl)amino]-9H-purin-9-yl}tetrahydrofuran-3,4-diol], for which, in assay [1], the “Adenosine A1 receptor ECR*” value is recorded as 2.83. For the same molecule, the “Adenosine A3 receptor ECR*” value in assay [2] was found to be 154.

Take `CNS(=O)(=O)CCNc1ncnc2c1ncn2[C@@H]1O[C@H](c2ncc(C)o2)[C@@H](O)[C@H]1O` [Example 127, 2-({9-[(2R,3R,4S,5S)-3,4-dihydroxy-5-(5-methyl-1,3-oxazol-2-yl)tetrahydrofuran-2-yl]-9H-purin-6-yl}amino)-N-methylethanesulfonamide]: in assay [1], the “Adenosine A1 receptor ECR*” value came out at 0.21. For the same molecule, the “Adenosine A3 receptor ECR*” value in assay [2] came to 21.62.

As for `CC(C)(C)c1noc([C@H]2O[C@@H](n3cnc4c(N[C@H]5CCC[C@@H]5O)ncnc43)[C@H](O)[C@@H]2O)n1` [Example 21, (2S,3S,4R,5R)-2-(3-tert-Butyl-[1,2,4]oxadiazol-5-yl)-5-[6-(2S-hydroxy-cyclopent-(S)-ylamino)-purin-9-yl]-tetrahydro-furan-3,4-diol], the “Adenosine A1 receptor ECR*” value in assay [1] was found to be 23.26. Also, the “Adenosine A3 receptor ECR*” value in assay [2] stood at 321.

As for `COCc1noc([C@H]2O[C@@H](n3cnc4c(NC5CCCC5)ncnc43)[C@H](O)[C@@H]2O)n1` [Example 129, (2R,3R,4S,5S)-2-[6-(cyclopentylamino)-9H-purin-9-yl]-5-[3-(methoxymethyl)-1,2,4-oxadiazol-5-yl]tetrahydrofuran-3,4-diol], in assay [1], the “Adenosine A1 receptor ECR*” value was 15.5. Besides, the “Adenosine A3 receptor ECR*” value in assay [2] is given as over 199.

Turning to `CC(C)(C)c1nnc([C@H]2O[C@@H](n3cnc4c(Nc5ccc(Cl)cc5F)ncnc43)[C@H](O)[C@@H]2O)o1` [Example 14, (2S,3S,4R,5R)-2-(5-tert-Butyl-[1,3,4]oxadiazol-2-yl)-5-[6-(4-chloro-2-fluoro-phenylamino)-purin-9-yl]-tetrahydro-furan-3,4-diol], the “Adenosine A1 receptor ECR*” value in assay [1] is reported as 5.8. In addition, the “Adenosine A3 receptor ECR*” value in assay [2] came to 1066.71.

For the molecule `O[C@@H]1[C@H](O)[C@@H](c2nc(C3CC3)no2)O[C@H]1n1cnc2c(N[C@H]3CCC[C@@H]3O)ncnc21` [Example 19, (2S,3S,4R,5R)-2-(3-Cyclopropyl-[1,2,4]oxadiazol-5-yl)-5-[6-(2S-hydroxy-cyclopent-(S)-ylamino)-purin-9-yl]-tetrahydro-furan-3,4-diol], the “Adenosine A1 receptor ECR*” value in assay [1] stood at 5.15. In addition, the “Adenosine A3 receptor ECR*” value in assay [2] worked out at 172.

The record behind these values is patent US6677316B2, “Adenosine derivatives and methods of administration” (SmithKline Beecham Corporation, priority 1998, dated 2004).
